Test results: patent publication US6573278B2, “Aryl sulfonamides and analogues thereof and their use in the treatment of neurodegenerative diseases” (Bayer Aktiengesellschaft, priority 1997, dated 2003)
Structures can show the parent of a compound that is named as a salt. Marks after values point to notes of the source that are not given here. One block for each compound: values may come before it.

Key:
[1] = Rat hypothermia, agonism testing; assay type: in vivo; conditions: i.v.
Method: Five minutes after determination of the basal body temperature via an oesophageal temperature probe, the test substance is administered (i.v.). A control group receives only the solvent for the test substances, likewise i.v. The body temperature is measured 7.5, 15, 30 and 60 minutes after i.v. administration. The group size per dose is 5-7 animals (rats).
Rat hypothermia—Agonism testing

[2] = molecular target: T1, rat CB1 receptor (Rattus norvegicus, UniProt P20272); test: CB1 luciferase reporter gene test (CHOluc9 cells, forskolin-stimulated); assay type: cell-based; conditions: CHOluc9 cells with rat CB1, forskolin
T1 construct: contains an open reading frame of 1419 base pairs which corresponds to a protein of 473 amino acids; expressed in transfected cells; host or cells: CHOluc9 cells, stably transfected with plasmid CMV-RH (pRc/CMV)
Method: CB1—Luciferase Reporter Gene Test
1. Cloning of the Rat Cannabinoid Receptor CB1
Total RNA from rat brain (the tissue was taken from freshly killed animals and shock-frozen in liquid nitrogen) was isolated by acidic guanidinium thiocyanate/phenol/chloroform extraction (J. Biol. Chem. 1979, 18, 5294) and converted into cDNA by means of reverse transcriptase and random primers (in each case from Invitrogen). The polymerase chain reaction (PCR, conditions: 4 min 94° C., 1×; 1 min 94° C.; 2 min 53° C.; 1 min 72° C., 50 cycles; 1 min 94° C., 2 min 53° C., 4 min 72° C., 1×) was carried out in a Perkin Elmer thermocycler using the enzyme Taq polymerase (Perkin Elmer); the oligonucleotide primers employed (bases 99 to 122: 5′→3′, “down”; 1556-1575: 3′←5′, “up”) were derived from the published sequence of the rat cannabinoid receptor (Nature 1990, 346, 561) and were synthesized on a DNA synthesizer, model 1380 from Applied Biosystems. One part of the PCR reaction was separated in a 1% strength agarose gel in 1× TBE buffer and then stained with ethidium bromide, only one band having the expected length being visible (approximately 1.5 kb). This PCR product was subcloned into the TA cloning vector (Invitrogen) and the nucleotide sequence of the inserts was determined by the dideoxynucleotide chain termination reaction using T7DNA polymerase (Sequenase, USA/Amersham). The insert has a length of 1477 base pairs and contains an open reading frame of 1419 base pairs which corresponds to a protein of 473 amino acids. The number of base pairs, the position of the open reading frame and the number of amino acids agree with the published sequence. Computer analyses were carried out with the aid of the GCG software suite (Genetic Computer Group). The cDNA insert was subcloned into the expression vector pRc/CMV after partial digestion with HindIII and NotI (Biolabs). This construct (plasmid CMV-RH) was employed for transfection experiments.
2. Stable Transfection of the CHOluc9 Reporter Cells
CHOluc9 cells were cultured in 50% Dulbecco's modified Eagle medium/50% F-12 (DMEM/F12) which contained 10% foetal calf serum (FCS). Transfections were prepared in 6-well plates. 7.5 μg of Qiagen-purified CMV-RH plasmid DNA were added per […] with the DOTAP transfection system, corresponding to the experimental protocol of the manufacturer (Boehringer Mannheim). Transfected cells were selected using 1 mg/ml G418 and individual clones were obtained by limiting dilution in 96-well plates. Cell lines which express the cannabinoid receptor were identified for the inhibition of reporter gene expression after incubation with the cannabinoid receptor agonist, WIN-55,212-2, in the presence of forskolin. Several stable transfected and subcloned cell lines were further characterized by means of RT-PCR, as described under 1.
3. Test Optimization and Pharmacological Characterization of the CHOCB1 Reporter Cell Line
With the aim of high sensitivity and reproducibility, low variance and high suitability for carrying out on the robotic system, the luciferase test was optimized by variation of several test parameters, such as, for example, cell density, duration of the growth phase and the test incubation, forskolin concentration, medium composition. […]

[3] = test system: subdural haematoma in the rat (SDH); test: Subdural haematoma in the rat (SDH); assay type: in vivo
Method: Subdural Haematoma in the Rat (SDH)
Under anaesthesia, the animal's own blood is injected subdurally on one side An infarct is formed under the haematoma. Substance administration is carried out according to different time schemes and via different administration routes (i.v., i.p.) The determination of the infarct size is carried out as described in the model of permanent focal ischaemia in the rat (MCA-O)
Activity in the model “subdural haematoma in the rat (SDH)”

[4] = test system: permanent focal cerebral ischaemia (MCA-O); test: Permanent focal cerebral ischaemia in the rat (MCA-O); assay type: in vivo; conditions: infarct size after 7 days
Method: Permanent Focal Cerebral Ischaemia in the Rat (MCA-O)
Under isoflurane anaesthesia, the median cerebral artery is exposed on one side and the latter and its side branches are irreversibly sealed by means of electrocoagulation. As a result of the intervention a cerebral infarct is formed. During the operation, the body temperature of the animal is kept at 37° C. After wound closure and wearing off of the anaesthesia, the animals are again released into their cage. The administration of substance is carried out according to different time schemes and via different administration routes (i.v., i.p.) after occlusion. The infarct size is determined after 7 days. To do this, the brain is removed, worked up histologically and the infarct volume is determined with the aid of a computer-assisted analysis system.
Activity in the model of permanent focal cerebral ischaemia (MCA-O)

[5] = molecular target: T2, CB1 receptor (rat cortex membranes) (Rattus norvegicus, UniProt P20272); test: Binding studies on rat cortex membranes; conditions: read-out: Ki, affinity for the CB1 receptor (rat cortex membranes)
T2 construct: from tissue; host or cells: rat cortex membranes
Method: Binding Studies on Rat Cortex Membranes
Membrane protein is prepared from different tissues or from cells by standard methods. Buffer, labelled ligand, DMSO or test substance are pipetted together, then 100 μg of protein are added, and the mixture is well mixed and incubated in a water bath at 30° C. for 60 min. After expiry of the incubation time, the reaction is stopped by addition of ice-cold incubation buffer to each tube. After filtering off, washing is carried out with ¾ ml of incubation buffer. The filters are transferred to minivials and the radioactivity is determined in a scintillation counter. Affinity for the CB1 receptor (rat cortex membranes)

[6] = 0.1 mg/kg, i.v. bolus injections directly, 2 and 4 hours after occlusion
[7] = 0.03 mg/kg/h, i.v. continuous infusion directly up to 4 hours after occlusion

T2 sequence (P20272 whole entry): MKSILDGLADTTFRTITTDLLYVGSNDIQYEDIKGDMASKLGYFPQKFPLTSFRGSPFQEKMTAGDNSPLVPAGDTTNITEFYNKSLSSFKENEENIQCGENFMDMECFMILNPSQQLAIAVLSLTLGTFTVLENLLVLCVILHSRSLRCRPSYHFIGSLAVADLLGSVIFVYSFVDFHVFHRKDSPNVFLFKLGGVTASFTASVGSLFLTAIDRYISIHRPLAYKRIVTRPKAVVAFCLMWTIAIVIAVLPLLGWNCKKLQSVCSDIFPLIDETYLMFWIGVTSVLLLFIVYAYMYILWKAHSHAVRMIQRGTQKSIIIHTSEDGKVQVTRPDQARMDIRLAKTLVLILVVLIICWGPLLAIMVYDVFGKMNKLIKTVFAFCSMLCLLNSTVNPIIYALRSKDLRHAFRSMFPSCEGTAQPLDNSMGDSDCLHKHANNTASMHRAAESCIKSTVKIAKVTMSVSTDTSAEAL
T1 sequence (P20272 whole entry): as above

- melting point: 138 to 139 °C
Compound: CCCC[S+]([O-])Nc1ccc(Oc2cccc3ccccc23)cc1 (stereo not drawn)

- melting point: 80 °C
Compound: CCCCC(=O)Nc1ccc(Oc2cccc3ccccc23)cc1

- melting point: 162 °C
Compound: CCCCCS(=O)(=O)N(c1ccc(Oc2cccc3c2CCNC3)cc1)S(=O)(=O)CCCCC (as salt: hydrochloride)

- melting point: 161 °C
Compound: CCCCS(=O)(=O)Nc1ccc([S+]([O-])c2cccc3ccccc23)cc1 (stereo not drawn)

- melting point: 135 to 137 °C
Compound: CCCCCS(=O)(=O)Nc1ccc(Oc2cccc3c2CC(CO)(CO)C3)cc1

- melting point: 95 °C
Compound: CCCOS(=O)(=O)Nc1ccc(Oc2cccc3ccccc23)cc1

- melting point: 187 °C
Compound: CCCCCS(=O)(=O)Nc1ccc(Oc2cccc3c2CCN(CCCC)C3)cc1

- melting point: 113 to 115 °C
Compound: CCCNS(=O)(=O)Nc1ccc(Oc2cccc3ccccc23)cc1

- melting point: 143 °C
Compound: CCCCCS(=O)(=O)Oc1ccc(Oc2cccc3c2CCNC3)cc1

The next lines start with the compound.

Compound: CCCCS(=O)(=O)Nc1ccc(S(=O)(=O)c2cccc3ccccc23)cc1
- melting point: 180 °C

Compound: CCCCCS(=O)(=O)Oc1ccc(Oc2cccc3ccccc23)cc1 [Example 99]
- ED−1° C., effective dose for 1° C. body temperature reduction [1]: 0.6 ^b) mg/kg
- IC50 [2]: 2.9 nM

Compound: O=S(=O)(CCCCl)Nc1ccc(Oc2cccc3ccccc23)cc1 [Example 65]
- % Reduction in the infarct volume [3, 6]: 53%
- % Reduction in the infarct volume ([3]; 0.3 mg/kg/h, i.v. continuous infusion directly up to 4 hours post-trauma): (65) %
- melting point: 115 °C
- % Reduction in the infarct volume ([4]; 0.01 mg/kg/h): (47) %
- % Reduction in the infarct volume [4, 7]: 37%
- ED−1° C., effective dose for 1° C. body temperature reduction [1]: 1.0 ^b) mg/kg
- IC50 [2]: 13 nM
- Ki [5]: 250 nM

Compound: CCCCS(=O)(=O)Nc1ccc(Oc2cccc3ccccc23)cc1 [Example 1, 1-N-(1-Butylsulfonyl)amino-4-(naphthyl-1-oxy)benzene]
- % Reduction in the infarct volume [3, 6]: 54%
- % Reduction in the infarct volume ([3]; 1.0 mg/kg, i.v. bolus injections directly, 2 and 4 hours after occlusion): (84) %
- melting point: 108 to 109 °C
- % Reduction in the infarct volume [4, 7]: 35%
- ED−1° C., effective dose for 1° C. body temperature reduction [1]: 1.0 ^b) mg/kg
- IC50 [2]: 15 nM
- Ki [5]: 590 nM

Compound: O=S(=O)(NCc1ccccc1)c1ccc(Oc2cccc3ccccc23)cc1
- melting point: 144 to 146 °C

Compound: O=S(=O)(Cc1ccccc1)Nc1cccc(Oc2cccc3ccccc23)c1 [Example 51]
- % Reduction in the infarct volume ([3]; 0.01 mg/kg/h, i.v. continuous infusion directly up to 4 hours post-trauma): 54%
- melting point: 139.5 °C
- % Reduction in the infarct volume [4, 6]: 24%
- ED−1° C., effective dose for 1° C. body temperature reduction [1]: 0.1 ^b) mg/kg
- IC50 [2]: 0.9 nM
- Ki [5]: 41 nM

Compound: Nc1ccc(Oc2ccc(NS(=O)(=O)Cc3ccccc3)cc2)c2ccccc12 (as salt: hydrochloride)
- melting point: 252 °C

Compound: O=S(=O)(Cc1ccccc1)Nc1ccc(Oc2cccc3ccccc23)nc1 [Example 33]
- % Reduction in the infarct volume [3, 6]: 42%
- melting point: 161 to 162 °C
- % Reduction in the infarct volume [4, 6]: 33%
- ED−1° C., effective dose for 1° C. body temperature reduction [1]: 0.6 ^b) mg/kg
- IC50 [2]: 10 nM
- Ki [5]: 420 nM

Compound: CCC(=O)Nc1ccc(Oc2ccc(NS(=O)(=O)Cc3ccccc3)cc2)c2ccccc12
- melting point: 180 °C
